Laboratory results: US20140170096A1, “SUNSCREEN COMPOSITIONS” (priority 2011, published 2014)
“Also recorded” adds a separate entry of the source. Like-named read-outs stand apart in the source and are kept apart here.

How the values were obtained:
[1] = tested on: symbiotic zooxanthellae released from coral nubbins; experiment: Zooxanthellae counts: zooxanthellae released in water surrounding coral nubbins; assay type: in vivo, Acropora sp.; conditions: for Healthy zooxanthellae released / Pale zooxanthellae released / Total zooxanthellae released / Transparent (i.e., dead) zooxanthellae released: end of incubation (72 h); for Percentage of healthy zooxanthellae released / Percentage of pale zooxanthellae released / Percentage of transparent zooxanthellae released: of total released; for Abundance of released zooxanthellae compared with the BLK system: statistical analysis, P<0.01
Procedure: (§1) In situ tests were performed on nubbins (i.e., small branches of about 3-6 cm) of the stony coral Acropora sp. The nubbins were incubated in microcosms in presence of known concentrations of various ingredients potentially to be included in the composition of the eco-compatible sunscreen cream. In particular, coral nubbins (including more than 3000 polyps each) were collected by scuba divers from the same colony, located at a depth of about 3 m on the edge of the reef slope. Sampling of nubbins was performed by means of forceps. The nubbins were washed with seawater filtered onto 0.02-μm filters to eliminate viruses and prokaryotes. Each microcosm was prepared with a replicate set of nubbins (n=3) immersed in sterile polyethylene bags (Whirl-pack, Nasco, Fort Atkinson, Wis., USA) filled with 2 L filtered seawater. A total of 27 microcosms were prepared, in order to test 20 ingredients with the respective positive and negative controls. The microcosms were incubated at in situ temperature and light conditions for 72 hours.
Subsamples (50 mL) of seawater surrounding coral nubbins were collected at the start of the experiment (T0) and after 6, 12, 24, 36, 48 and 72 hours of incubation. The subsamples were fixed in 3% glutaraldehyde and then about 6.0 ml of each replicate was filtered through 2.0-μm polycarbonate filters. Filters were mounted on glass slides and zooxanthellae counted under epifluorescence microscopy (Zeiss Axioplan, Carl Zeiss Inc., Jena, Germany; ×400 and ×1000) using standard and UV light.

[2] = tested on: viruses in water surrounding coral nubbins; experiment: Viral abundance and viral enrichment in seawater surrounding coral nubbins (microcosm incubation); conditions: for Total viral abundances (TVN): seawater surrounding Acropora sp. nubbins, compound concentration per Table 2; for Viral enrichment factor (VEF): ratio of viral abundances, end vs start of incubation
Procedure: as §1
(§2) After subsampling, sea water was transferred into sterile test tubes without use of fixatives and stored at −20° C. until laboratory analysis for quantification of viral and prokaryotic abundance. Once in laboratory, the water samples were immediately processed. Briefly, 200 uL sea water were diluted 1:10 with prefiltered MilliQ water, through 0.02-μm pore filters (Anodisc filter; 25-mm diameter, Al2O3; Whatman) and stained with 20 μL SYBR Green (stock solution diluted 1:20; Invitrogen, Carlsbad, Calif., USA). […] Slides were stored at −20° C. until microscopy analysis. Virus and prokaryote counts were obtained by epifluorescence microscopy (magnification, ×1000; Zeiss Axioplan) by examining at least 10 optical fields, that is, at least 200 cells or viruses per replicate. Viral (and prokaryotic) enrichment was calculated as ratio between virus (and prokaryote) abundances and virus (and prokaryote) abundance at the […] of the experiment.

[3] = tested on: prokaryotes in water surrounding coral nubbins; experiment: Prokaryotic (bacterial) abundance and enrichment in seawater surrounding coral nubbins (microcosm incubation); conditions: seawater surrounding Acropora sp. nubbins
Procedure: as §1, §2

[4] = tested on: coral reefs; experiment: Summary of eco-compatibility of tested products with coral reefs; design: species or system Acropora sp.
Procedure: In order to select the most eco-compatible products for each group of compounds (i.e., base cream, fragrance, antioxidants and filters) the following criteria were selected:
1. coral bleaching level; 2. degree of release of symbiotic zooxanthellae; 3. zooxanthellae health conditions; 4. viral enrichment in the incubation medium with respect to controls.

[5] = tested on: stony coral Acropora sp. nubbins; experiment: Quantification of coral bleaching by colorimetric (CMYK) analysis of digital photographs; assay type: in vivo; conditions: for Number of color channels (of 4, CMYK) significantly altered: after 72 h of incubation; for One-way ANOVA probability level, color component Black (K) / One-way ANOVA probability level, color component Cyan (C) / One-way ANOVA probability level, color component Magenta (M) / One-way ANOVA probability level, color component Yellow (Y): coral color change, start vs after treatment
Procedure: as §1
Photographs were taken under identical illumination with a Canon PowerShot A620 digital camera (Canon Inc., Tokyo, Japan) with a scale meter on the background. The photos were successively analyzed with a photo-editing software (Adobe Photoshop CS2) for color composition [cyan, magenta, yellow, black (CMYK)]. Levels of bleaching were measured as the difference between the corals' color at the beginning of the experiment and after treatments. Variations in the percentage of the different color components (CMYK) were analyzed with one-way analysis of variance (ANOVA). To rank the bleaching effect due to the compounds tested, a Bray-Curtis similarity matrix was prepared and a multidimensional scaling analysis of the shifts in CMYK color composition of treated corals was performed using Primer 5.0 software (Primer-E Ltd., Plymouth, UK). Bleaching rates were measured as the dissimilarity percentage in CMYK color composition between treated and control corals using the SIMPER tool of Primer 5.0 software (Primer-E Ltd).

Compound	Healthy zooxanthellae released [1]	Pale zooxanthellae released [1]	Total zooxanthellae released [1]	Transparent (i.e., dead) zooxanthellae released [1]	Percentage of healthy zooxanthellae released ([1]; end of incubation)	Percentage of pale zooxanthellae released ([1]; end of incubation)	Percentage of transparent zooxanthellae released ([1]; end of incubation)	Abundance of released zooxanthellae compared with the BLK system [1]	Total viral abundances (TVN) ([2]; incubation 0 (start))	Total viral abundances (TVN) ([2]; incubation 12 h)	Viral enrichment factor (VEF) [2]	Bacterial abundance (total bacterial number, TBN) ([3]; incubation 0 (start))	Bacterial abundance (total bacterial number, TBN) ([3]; incubation 12 h)	further results
CC(=O)Oc1c(C)c(C)c2c(c1C)CCC(C)(CCC[C@H](C)CCC[C@H](C)CCCC(C)C)O2 (mixture of isomers) [System D17, DL-tocopherol-acetate]	1.48E+03 cells ml^−1	1.88E+04 cells ml^−1	4.45E+04 cells ml^−1	2.42E+04 cells ml^−1	3%	42%	54%	significantly higher	3.49E+05 viruses ml^−1	2.83E+06 viruses ml^−1	8.36	5.80E+04	1.42E+06	Eco-compatibility ([4]; criteria: bleaching level, zooxanthellae release, zooxanthellae health, viral enrichment, listed as Tocopheryl acetate): Highly compatible; Eco-compatibility ([4]; criteria: bleaching level, zooxanthellae release, zooxanthellae health, viral enrichment, listed as tocopheryl acetate): greater eco-compatibility
C/C=C/C=C/C(=O)O [sorbic acid]														Harm to the marine environment of coral reefs [4]: did not prove harmful
2-phospho-ascorbic acid trisodium salt [System D18]	1.14E+03 cells ml^−1	1.09E+04 cells ml^−1	2.11E+04 cells ml^−1	9.06E+03 cells ml^−1	5%	52%	43%	significantly higher	3.70E+05 viruses ml^−1	2.51E+06 viruses ml^−1	7.09	3.86E+04	1.39E+06	Final abundance of zooxanthellae in water surrounding the coral nubbins ([1]; end of incubation): 4.45 ×10^4 cell ml^−1; Number of color channels (of 4, CMYK) significantly altered [5]: 4; One-way ANOVA probability level, color component Black (K) [5]: ** (** = P < 0.01); One-way ANOVA probability level, color component Cyan (C) [5]: ** (** = P < 0.01); One-way ANOVA probability level, color component Magenta (M) [5]: ** (** = P < 0.01); One-way ANOVA probability level, color component Yellow (Y) [5]: * (* = P < 0.05)
Cc1c(C)c2c(c(C)c1O)CC[C@@](C)(CCC[C@H](C)CCC[C@H](C)CCCC(C)C)O2 [System D16, Alpha-tocopherol]	4.09E+03 cells ml^−1	1.25E+04 cells ml^−1	2.67E+04 cells ml^−1	1.01E+04 cells ml^−1	15%	47%	38%	significantly higher	3.24E+05 viruses ml^−1	1.46E+06 viruses ml^−1	4.54	3.78E+04		Eco-compatibility ([4]; criteria: bleaching level, zooxanthellae release, zooxanthellae health, viral enrichment, listed as Tocopherol): Highly compatible; Eco-compatibility ([4]; criteria: bleaching level, zooxanthellae release, zooxanthellae health, viral enrichment, listed as tocopherol): greater eco-compatibility
CCCCCCOC(=O)c1ccccc1C(=O)c1ccc(N(CC)CC)cc1O [System D25, 2-[4-(diethylamine)-2-hydroxybenzoyl]hexyl benzoate]	3.35E+02 cells ml^−1	8.86E+03 cells ml^−1	1.64E+04 cells ml^−1	7.25E+03 cells ml^−1	2%	54%	44%		3.67E+05 viruses ml^−1	2.63E+06 viruses ml^−1	7.44	3.67E+05	2.63E+06	Eco-compatibility ([4]; criteria: bleaching level, zooxanthellae release, zooxanthellae health, viral enrichment, listed as DHHB): greater eco-compatibility; also recorded: Highly compatible
CCCCC(CC)COC(=O)c1ccc(Nc2nc(Nc3ccc(C(=O)OCC(CC)CCCC)cc3)nc(Nc3ccc(C(=O)OCC(CC)CCCC)cc3)n2)cc1 (stereo not shown) [System D24, ethylhexyl triazone]	2.68E+02 cells ml^−1	8.39E+03 cells ml^−1	1.89E+04 cells ml^−1	1.02E+04 cells ml^−1	1%	44%	54%		9.58E+04 viruses ml^−1	1.08E+06 viruses ml^−1	12.58	2.09E+04	7.41E+05	Eco-compatibility [4]: Compatible
CO[C@@]12[C@H](COC(N)=O)C3=C(C(=O)C(C)=C(N)C3=O)N1C[C@@H]1N[C@@H]12 [MITO, Mitomycin C, reference compound]	0.00E+00 cells ml^−1	5.25E+03 cells ml^−1	2.20E+04 cells ml^−1	1.68E+04 cells ml^−1	0%	24%	76%		1.11E+05 viruses ml^−1	1.53E+06 viruses ml^−1		1.11E+05	1.53E+06	Number of color channels (of 4, CMYK) significantly altered [5]: 4; One-way ANOVA probability level, color component Black (K) [5]: ** (** = P < 0.01); One-way ANOVA probability level, color component Cyan (C) [5]: ** (** = P < 0.01); One-way ANOVA probability level, color component Magenta (M) [5]: ** (** = P < 0.01); One-way ANOVA probability level, color component Yellow (Y) [5]: ** (** = P < 0.01)
